Among the data in PubChem BioAssay AID463199 (Broad Institute, 2010) are AC50 values, retold here.

A word on the AC50: it is the concentration at which the activity in the assay is half-maximal.

The structures appear in SMILES notation. Calls of active or inactive are those of the source.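 How the source made its calls: active means AC50, the dose giving half-maximal effect, exceeds a fixed cutoff for a compound that rescues yeast growth under heat; inactive means the rest, inconclusive results apart.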

This experiment concerns S. cerevisiae Burl-1 ts mutant growth, BacTiter-Glo, 38.5C 24 h. The experiment can be described thus: growth induction of Burl-1 ts yeast mutant, dose response, counter-screen for SUMOylation pathway inhibitor project, whole organism, S. cerevisiae, luminescence (AID 463199). For orientation: Counterscreens check selectivity or assay interference.
`COC(=O)c1cc2c(s1)-c1ccc(OC)cc1CC2`: the AC50 is > 42 µM (inactive).
Consider `Cc1cc(C)n2c(SCC(C)C)nnc2n1`, for which the AC50 is > 42 µM (inactive).
The value for `COc1cccc(Nc2nc(C)nc3c2oc2ccccc23)c1` was > 42 µM (inactive).
`CCN1CCCC1CNC(=O)Cn1cnc2ccc(S(=O)(=O)N3CCC(C)CC3)cc2c1=O` (stereo not given): the AC50 was > 42 µM (inactive).
The value for `CCOC(=O)C1=C(C)NC(C)=C(C(=O)OCC)C1C(=O)OC1CCOC1=O` (stereo not given) was > 42 µM (inactive).
With `O=S(=O)(Cc1ccccc1)N1CCN(c2ncccn2)CC1`, the AC50 is > 42 µM (inactive).
The value for `CCNc1ccc(S(=O)(=O)N(C)C)cc1NCC(=O)Nc1ccccc1Br` was > 42 µM (inactive).
As for `CCC(C)N1C(=O)CN(C2CCCCCC2)C(=O)C1c1ccccc1F` (stereo not given), the AC50 is > 42 µM (inactive).
The value for `CCOC(=O)c1sc(NC(=O)C(CC)OC(=O)c2ccco2)nc1C` (stereo not given) was > 42 µM (inactive).
With `O=C1OC(Cc2ccccn2)C(O)=C1C1=NCCCN1` (stereo not given), the AC50 is > 42 µM (inactive).
The value for `COc1cccc(CN(C)C(=O)C2CCC(=O)N(Cc3cccc(F)c3)C2)c1` (stereo not given) was > 42 µM (inactive).
The value for `CCN1CSC(=S)N(Cc2ccc(OC)cc2)C1` was 7.78 µM; that for `O=C(C[n+]1ccc(C(=O)N/N=C/c2ccc(Cl)cc2Cl)cc1)c1ccccc1` was > 42 µM (inactive).
The value for `CC1=Nc2ccccc2/C1=C\c1nc(-c2ccccc2)oc1O` was > 42 µM (inactive).
In the case of `S=C(Nc1ccccc1Cl)N1CCOCC1`, the AC50 is > 42 µM (inactive).
The value for `CCOC(=O)CN1NC2(CCC(C(C)(C)C)CC2)NC1=S` (stereo not given) was > 42 µM (inactive); that for `C/C(CC(=O)Nc1cccc(Cl)c1Cl)=N\NC(=O)c1ccccc1C` was > 42 µM (inactive); that for `O=C(NC1CCc2ccccc21)c1cc(COc2ccc(F)cc2F)on1` (stereo not given) was > 42 µM (inactive).
The value for `Cc1sc2nc(CN3CCCC3)nc(NCc3ccncc3)c2c1C` was > 42 µM (inactive); that for `Oc1cccc2ccc(/C=C/c3ccccc3Br)nc12` was > 42 µM (inactive).
Take `CCOC(=O)c1c(C)[nH]c(O)c1C=Nc1ccccc1`: the AC50 was > 42 µM (inactive).
The value for `CCOC(=O)CSc1nc2ccccc2c(=O)n1CC(C)C` was > 42 µM (inactive).
For `O=c1c2ccccc2ncn1Cc1ccc2c(c1)OCO2`, the AC50 is > 42 µM (inactive).
With `COc1ccc(NC(=O)C2CCN(c3cc(C)nc(-c4ccccc4)n3)CC2)cc1`, the AC50 is > 42 µM (inactive).
The value for `CCOc1ncccc1-c1nc(-c2cccs2)no1` was > 42 µM (inactive); that for `Nc1cc[n+](CC(=O)Nc2ccccc2)cc1` was > 42 µM (inactive).
The value for `CC(=O)N1CCc2cc(S(=O)(=O)CCC(=O)N3CCN(C(=O)c4ccco4)CC3)ccc21` was > 42 µM (inactive); that for `O=C1NC2(CCCCC2)NN1c1ccccc1` was > 42 µM (inactive); that for `COC(=O)c1ccc(NC(=O)CCN2CCN(c3ccccc3)CC2)cc1` was > 42 µM (inactive).
The value for `CC1(OC(=O)CCc2ccccc2)C(=O)C=C2C=C(c3ccc(C#N)cc3)N(CC3CC3)C=C2C1=O` (stereo not given) was > 42 µM (inactive); that for `O=C(Cc1ccc(Cl)cc1Cl)OCC(=O)c1ccc[nH]1` was > 42 µM (inactive); that for `CN=C1SC(CC(=O)Nc2sc3c(c2C#N)CCCC3)C(=O)N1C` (stereo not given) was > 42 µM (inactive).
As for `O=C1C2CC=C(Cl)CC2C(=O)N1c1ncn[nH]1` (stereo not given), the AC50 is > 42 µM (inactive).
The value for `CCOc1ccc(N(C(C)C(=O)NC(C)CC)S(C)(=O)=O)cc1` (stereo not given) was > 42 µM (inactive).
The value for `Cc1csc(=O)n1CC(=O)OCC(=O)Nc1cc([N+](=O)[O-])ccc1Cl` was > 42 µM (inactive); that for `Brc1ccc(-c2cn3cccnc3n2)cc1` was > 42 µM (inactive); that for `C(=N\N1CCN(C2c3ccccc3-c3ccccc32)CC1)/c1ccncc1` was > 42 µM (inactive).
`CS(=O)(=O)N1CCCC(C(=O)Nc2ccc(F)cc2F)C1` (stereo not given): the AC50 was > 42 µM (inactive).
Consider `COc1cc(NC(=O)CN2CCN(CC(=O)Nc3ccccc3OC)CC2)cc(OC)c1`, for which the AC50 was > 42 µM (inactive).
The value for `CCc1ccc(-n2c(Cc3ccccc3)n[nH]c2=S)cc1` was > 42 µM (inactive); that for `N#CC(CC(=O)c1ccc(F)cc1)c1ccc2c(c1)OCO2` (stereo not given) was > 42 µM (inactive); that for `CCOC(=O)c1oc2c(c1C)C(=O)CCC2` was > 42 µM (inactive).
For `CCN(CC)c1nc(Nc2ccc(Cl)cc2)nc(OCC#N)n1`, the AC50 is > 42 µM (inactive).
In the case of `Cc1ccc(NC(=O)CN2CCN(CCN=CC3=C(O)CC(C)(C)CC3=O)CC2)cc1`, the AC50 was > 42 µM (inactive).
The value for `Cn1nc(C(C)(C)C)c([N+](=O)[O-])c1C(=O)Nc1ccccc1` was > 42 µM (inactive).
Take `COc1cc(NC(=O)c2ccccc2F)c(OC)cc1NC(=O)CN1CCCCC1`: the AC50 was > 42 µM (inactive).
The value for `CC(C)(C)n1nnnc1C(c1ccc(Cl)cc1)N(Cc1cccnc1)Cc1ccco1` (stereo not given) was > 42 µM (inactive).
The value for `COc1ccccc1N1CCN(C(=O)C2CCN(S(=O)(=O)c3ccc(C)cc3)CC2)CC1` was > 42 µM (inactive).
The value for `Cn1c(=O)[nH]c(=O)c2c1nc(NCCN)n2CCOc1ccccc1` was > 42 µM (inactive).
Take `COc1ccc(C(=O)Sc2ccc(Cl)cc2)cc1OC`: the AC50 is > 42 µM (inactive).
The value for `O=C(CSc1nc(=O)n2ccccc2n1)N1CCN(c2ccccc2)CC1` was > 42 µM (inactive).
Consider `CC(C)CNc1cc(=O)n(C)c(=O)n1C`, for which the AC50 was > 42 µM (inactive).
The value for `Cn1nc(C(=O)NCCc2ccc(Cl)cc2)c2c1-c1ccccc1S(=O)(=O)C2` was > 42 µM (inactive); that for `O=S1(=O)C=C(Sc2nnc(-c3ccccc3)o2)c2ccccc21` was 8.23 µM.
The value for `Cc1nc(CCNC(=O)c2ccccc2)cs1` was > 42 µM (inactive); that for `CC(C)Cc1cc(CN2CCC(CO)(Cc3ccccc3)CC2)[nH]n1` was > 42 µM (inactive); that for `c1ccc2cc(Cn3ccnc3)ccc2c1` was > 42 µM (inactive).
The value for `O=C(CSc1nccc(=O)[nH]1)c1cc2ccccc2o1` was > 42 µM (inactive).
Turning to `COCCn1c(-c2ccc(Cl)cc2)cnc1SCC(=O)NCCc1ccc(OC)c(OC)c1`, the AC50 was > 42 µM (inactive).
The value for `O=c1[nH]c(O)c(N=Nc2cc([N+](=O)[O-])ccc2O)c(=O)[nH]1` was > 42 µM (inactive); that for `O=C(CCSc1ccccc1)Nc1ncccn1` was > 42 µM (inactive); that for `CN(C)c1ccc(NC(=O)CSc2nc(N)c(C(=O)Nc3ccc(N(C)C)cc3)s2)cc1` was > 42 µM (inactive).
The value for `COc1cc(/C=N/n2cnnc2)ccc1OCc1ccccc1` was > 42 µM (inactive); that for `O=C(CN1CCc2ccccc21)NN1CC(=O)N(c2ccc(Cl)cc2)CC1=O` was > 42 µM (inactive).
The value for `CCN(CC)CCCNC(=O)C1c2ccccc2C(=O)N(CCOC)C1c1ccc(F)cc1` (stereo not given) was > 21 µM (inactive); that for `CC(C)C(NC(=O)c1ccccc1)C(=O)NCC(c1ccccc1)N(C)C` (stereo not given) was > 42 µM (inactive).
In the case of `Cc1ccc(S(=O)(=O)NCCS(=O)(=O)N2CCN(c3ccc(F)cc3)CC2)cc1`, the AC50 was > 42 µM (inactive).
In the case of `CC(=O)N1c2ccc([N+](=O)[O-])cc2NC(=O)CC1C` (stereo not given), the AC50 is > 42 µM (inactive).
The value for `Cc1cc(NC(=O)CCC(=O)N(c2cccnc2)C(C(=O)NC2CCCC2)c2ccccc2)no1` (stereo not given) was > 42 µM (inactive).
The value for `Cc1ccc(NC(=S)NC(NC(=O)c2ccccc2C)C(Cl)(Cl)Cl)c(C)c1` (stereo not given) was > 42 µM (inactive); that for `CCCCC(=O)Nc1nnc(/C=C/c2ccc(OC)cc2)s1` was > 42 µM (inactive).
The value for `CN1CC2(C)OC(=O)C(Cl)=C2CC1c1ccccc1` (stereo not given) was > 42 µM (inactive); that for `COC(=O)[C@@H](NC(=O)Nc1ccc(S(N)(=O)=O)cc1)C(C)C` was > 42 µM (inactive).
In the case of `O=C(Nc1nc2ccccc2s1)c1cccc(S(=O)(=O)N2CCc3ccccc32)c1`, the AC50 was > 42 µM (inactive).
The value for `COC(=O)c1ccccc1NC(NC(=O)c1ccco1)C(=O)c1ccccc1` (stereo not given) was > 42 µM (inactive).
The value for `COc1ccc(-c2csc(Nc3cc(C)ccn3)n2)cc1C` was > 42 µM (inactive); that for `COc1ccc(N2C(=O)CSC23CCCCC3)cc1` was > 42 µM (inactive); that for `Cc1cc(O)c(/C=N/Nc2cccc(Cl)c2)c(=O)o1` was > 42 µM (inactive).
The value for `COc1cc(/C=N/NC(=O)c2cccc([N+](=O)[O-])c2)ccc1O` was > 42 µM (inactive).
In the case of `Cc1cc(NC(=O)c2ccc3c(c2)C(=O)N(C(C)(C)C)C3=O)no1`, the AC50 is > 42 µM (inactive).
The value for `O=C(NCc1ccccn1)C1Nc2ccc(C(F)(F)F)cc2C2C=CCC12` (stereo not given) was > 42 µM (inactive); that for `Cc1cccc(OCCC(=O)Nc2ccc(F)c(F)c2)c1` was > 42 µM (inactive).
For `Cc1ccc(CNC(=O)CCn2cc(-c3ccc(C)cc3)nc2CCN)cc1`, the AC50 is > 42 µM (inactive).
The value for `S=C(NCCc1ccccc1)Nc1ccccc1Cl` was > 42 µM (inactive).
On to `CCc1nnc2n1N=C(c1ccc(Cl)cc1)CS2`, for which the AC50 was > 42 µM (inactive).
The value for `Cc1cccc(Cn2c(C(=O)OC(C)C)cc3c2ccn3C)c1` was > 42 µM (inactive); that for `Cc1ccc2nc(NC(=O)C3CCN(S(=O)(=O)c4cccnc4)CC3)sc2c1` was > 42 µM (inactive); that for `COc1ccc(CN(CC(=O)NCc2ccco2)C(=O)CCC(=O)Nc2nccs2)cc1` was > 42 µM (inactive).
The value for `Cc1cc(C(=O)N/N=C/c2ccc3c(c2)OCO3)c2ccccc2n1` was > 42 µM (inactive).
The value for `CCOC(=O)N1CCN(C(=O)c2ccccc2-c2ccccc2)CC1` was > 42 µM (inactive).
